“Also recorded” adds a separate entry of the source.
Key:
Collagen IV = test: Measurement of Collagen-IV following multiple dose administration of CHP (Study 0202-71); type: in vivo, human; details: healthy volunteers, multiple oral doses of CHP for 14 days; P-value 0.0016 (t-test), 0.0047 (Wilcoxon-test)
Source text: Example 7—Study Title: Measurement of Collagen-IV Following Multiple Dose Administration of CHP-Study 0202-71—(FIG. 8)
Using a one-sample two-sided t-test, a P-value of 0.0016 was obtained, indicating a 99.8% that the decreased observed was not the result of chance. Using a one-sample two-sided Wilcoxon-test, a P-value of 0.0047 was obtained, indicating a 99.5% that the decreased observed was not the result of chance.

[1] = Tissue distribution, bioaccumulation and pharmacokinetics following multiple dose administration of 3H-CHP in mice (Study IPSS E015); type: in vivo
Source text: Example 2. A Study in Mice on the Tissue Distribution, Bioaccumulation and Pharmacokinetics in Tissues, Connective and BrainTissues Following Multiple Dose Administration of ^3H-CHP Study No. IPSS E015 (FIG. 2)
According to this invention the study has been designed and performed as follows:
From each mouse sacrificed, the following organs & tissues samples were taken:
Liver, kidney, pancreas, limbic system, spinal fluid, brain stem, cerebrum, cerebellum, cartilage, ligaments and tendons (dense or fibrous connective tissue), loose connective tissue, and reticular connective tissue (supports lymph nodes, bone marrow, and spleen)

[2] = tested on: patients with advanced cancer disease; test: Efficacy, safety and Quality of Life of 25 clinical cases with advanced cancer treated with oral and intravenous CHP; type: in vivo, human
Source text: Example 11—Study Title: Evaluation of the Efficacy, Safety and Quality of Life (QoL) of 25 Clinical Cases in Patients with Advanced Cancer Disease Treated with Oral and Intravenous Formulations of Cis-4-Hydroxy-L-Proline (CHP)
25 patients (15 female and 10 male) have been treated with oral and/or intravenous CHP: • Mean age was over 60 years with maximum of 82 and minimum of 36 years. • 15 Patients considered as “elderly patients”—60-82 years (60%) • Patients 50-60 years (20%) • No further demographic data were documented. • Complete clinical case documents have been prepared for each patient.

[3] = tested on: patients suffering from cancer, chronic liver diseases (liver fibrosis) and mild Alzheimer's disease/dementia; test: Phase II clinical studies (Example 12.1-12.4): safety, toxicity (CTC), Quality of Life, immune functions; type: in vivo, human
Source text: According to the example No. 12 in this invention, the safety, efficacy and Quality of Life (QoL) of CHP as monotherapy have been investigated in patients suffering from cancer, chronic liver diseases (liver fibrosis) and mild Alzheimer's disease/dementia The following four (4) ICH-GCP
Title: Phase II—CHP as antitumour agent in patients with resected colorectal cancer and liver metastasis; 60 patients—Study IPSS-A04 (Example 12.1).
Title: Phase II—CHP in patients with locally advanced or metastatic pancreatic cancer—14 patients Study IPSS B013 (Example 12.2).
Title: Evaluation of safety and efficacy of CHP in patients with urogenital Cancer—25 patients—Study IPSS-D002 (Example 12.3).
Title: Phase II—CHP in patients with chronic viral hepatitis, chronic alcohol liver diseases without cirrhosis or primary sclerosing cholangitis 45 patients—Study IPSS-B025 (Example 12.4).
According to the examples in this invention, the objectives of these studies were: • Assessment the efficacy and safety of CHP as monotherapy have been investigated in patients suffering from cancer, chronic liver diseases (liver fibrosis) and mild Alzheimer's disease/dementia.
The following validated evaluation systems have been used: • 1. Evaluation of Quality of Life as measured by the FACT questionnaires. • 2. Evaluation of the toxicity and safety of CHP treatment as measured by the Common Toxicity Criteria CTC. • Subjective assessments mild Alzheimer' patients: Overall physical conditions, Cognitive conditions, Quality of Life (QoL)
According to the study protocols for the performance of these studies, oral and intravenous CHP as monotherapy have been administered to the patients at high doses e.g. 8 gram/day for approximately 180 consecutive days. A number of patients have received the medication for approximately 18 months as mono therapy.

[4] = Single ascending oral doses of CHP (Study 1001-68) and single IV dose (Study 0302-72): pharmacokinetics and safety in healthy volunteers; type: in vivo, human
Source text: study title Safety, tolerability and pharmacokinetic profile of single ascending doses of oral cis-4-hydroxy-L-proline (CHP) in healthy volunteers Galmed study no. 1001-68-. Results FIGS. 3 and 4.
Study title: Single Dose Absolute Bioavailability (intravenous IV solution) and Safety Study of CHP in Healthy Volunteers-GALMED Study No: 0302-72. Results are in (FIGS. 5 and 6)
Six healthy volunteers (male, caucasian—18-45 years old) were recruited from the GCP-Galmed clinical centre. All healthy volunteers provided written informed consent prior to study participation. The study was approved by the independent Ethical Committee.
All volunteers were orally administered 2, 4, 6, 8, 10 and 12 grams of CHP with a wash out period of at least one week between doses of CHP.
The following blood and urine samples were collected for determination of the pharmacokinetics parameters of CHP and THP:
10 hours and immediately prior to administration of CHP (0 Hour), and at 0.25, 0.5, 1, 1.5, 2, 2.5, 3, 4, 5, 6, 12 and 24 hours after administration of CHP.
Urine was collected for the determination of the CHP and THP concentrations and the calculation of the elimination parameters of CHP and THP.
Six healthy volunteers (male, caucasian—18-45 years old) were recruited from the GCP-Galmed clinical centre. All healthy volunteers provided written informed consent prior to study participation. The study was approved by the independent Ethical Committee. Single doses of CHP were intravenously administered: 2.0 g, 4.0 g (2×2.0 g). Each dose level was administered to all healthy volunteers. There was a washout period of at least one week between doses.
The following safety parameters were determined at the pre- and post-study examinations: • 1. Vital signs • 2. Clinical laboratory: Blood chemistry, Haematology, Coagulation, Urinalysis • 3. Adverse events (Signs and Symptoms) have been recorded in each of the two treatment periods.

[5] = repeated oral dose of 3H-CHP for 7 consecutive days
[6] = healthy subjects, after oral administration of CHP 2 g-12 g

Compound: O=C(O)[C@@H]1C[C@H](O)CN1 [CHP, cis-4-hydroxy-L-proline]
- Collagen IV levels in blood (Collagen IV): inhibits significantly
- Penetration of the BBB ([1]; repeated dose of oral aqueous solution of 3H-CHP): Excellent penetration of the BBB
- AUC as % of total administered CHP in cerebrum, cerebelium, brain stem, limbic system and spinal fluid [1, 5]: 14.9%
- AUC as % of total administered CHP in loose connective tissues, cartilage, reticular connective tissue, dense/fibrous connective tissue, bone and bone marrow [1, 5]: 35%
- Half-Life time in cerebrum, cerebelium, brain stem and limbic system [1, 5]: 32.30 to 42.70 h
- Tolerability of long-term treatment ([2]; 1-13 month, 2-22 gram/day CHP as monotherapy, 25 patients): well tolerated
- Toxic side effects, adverse events ([2]; 25 patients with advanced cancer, CHP monotherapy): No adverse events or side effects occurred were clinically relevant; also recorded: no toxic side effects or serious adverse events
- Healing ([2]; advanced cancer patients treated with CHP): In one case healing was achieved
- Course of disease in most of the patients ([2]; advanced cancer, no progression, no ascites, no obstruction): quite long time of stable disease
- Immunological activities ([3]; Examples 12.1-12.4): increase of the immunological activities of interleukin-2, Interleukin-12, and Interferon-alpha
- Patients' Quality of Life (QoL questionnaires) ([3]; Phase II clinical studies): improved drastically
- Toxicity and safety as measured by the Common Toxicity Criteria CTC ([3]; Phase II clinical studies): has not cause any nephrotoxicity, neurotoxicity, hepatotoxicity, cardiotoxicity and/or laboratory abnormalities
- Side effects observed ([3]; Phase II clinical studies, CHP monotherapy): Only mild side effects such as nausea and/or vomiting
- Tolerability ([3]; all clinical studies, mostly patients over 60 years, e.g. 8 gram/day for approximately 180 consecutive days, oral and intravenous monotherapy): excellent tolerability
- Drug-drug interactions on co-administration with drugs used by the patients ([3]; mostly elderly patients): no drug-drug interactions have been observed
- Vital parameters, clinical chemistry, haematological and urinalysis findings ([4]; CHP administered orally and intravenously to healthy volunteers (Examples 3 and 4)): all within the normal range
- Oral clearance (average) [4, 6]: 199.72 mL/min
- Volume of distribution (average) [4, 6]: 63.94 L
- Correlation of Cmax and AUC(0-∞) with dose ([4]; healthy subjects, oral CHP doses 2 g-12 g): dose linearity
- Metabolism by the liver microsomal enzyme system ([4]; human, in vivo): isomerisation, hydroxylation and demethylation
- half-life ([4]; male, human, in vivo, healthy subjects, after oral administration of CHP 2 g-12 g, read-out: Elimination half life (average) (converted)): 3.7 h
- MRT ([4]; male, human, in vivo, healthy subjects, after oral administration of CHP 2 g-12 g, read-out: Mean residence time (MRT) (average)): 4.15 h
- Tmax ([4]; male, human, healthy subjects, plasma, after oral administration of CHP 2 g-12 g): 1.24 h

Source: patent US10328051B2, “Proline or proline derivatives for the treatment of dementia” (priority 2014, dated 2019)
